Assay results taken from the NIST ThermoML archive (doi:10.1016/j.jct.2015.12.025).

Experiment: refractive index (Na D-line) (dimensionless); xn = mol fraction of the nth substance listed
Conditions: 102 kPa, Liquid, Standard Abbe refractometry

C[Si]1(CCC(F)(F)F)O[Si](C)(CCC(F)(F)F)O[Si](C)(CCC(F)(F)F)O1 (stereo not given) + COc1ccccc1
refractive index
Conditions	308.15 K	313.15 K	318.15 K	323.15 K
x1 = 0.0502	1.48464	1.48208	1.47955	1.47695
x1 = 0.0999	1.4658	1.4633	1.46089	1.45834
x1 = 0.15	1.45042	1.44796	1.44565	1.44317
x1 = 0.1999	1.43774	1.43532	1.43308	1.43068
x1 = 0.2501	1.42699	1.42468	1.42242	1.42006
x1 = 0.2998	1.41796	1.41563	1.41345	1.41113
x1 = 0.3498	1.41011	1.40783	1.40566	1.40338
x1 = 0.4001	1.40327	1.401	1.39886	1.39659
x1 = 0.4497	1.39729	1.39509	1.39295	1.39069
x1 = 0.4997	1.39198	1.3898	1.38766	1.38549
x1 = 0.5453	1.38765	1.38551	1.38335	1.3812
x1 = 0.6001	1.38297	1.38081	1.37871	1.37655
x1 = 0.6498	1.37914	1.37703	1.37495	1.37279
x1 = 0.6995	1.3757	1.37358	1.37151	1.36941
x1 = 0.7502	1.3725	1.37039	1.36832	1.36625
x1 = 0.8	1.3696	1.36751	1.36547	1.36338
x1 = 0.8491	1.36697	1.36492	1.36288	1.36086
x1 = 0.8997	1.3645	1.36245	1.36042	1.35837
x1 = 0.9497	1.36221	1.36019	1.35818	1.35616
x1 = 1	1.36011	1.35808	1.35609	1.35407
